From patent US8735398B2 (Bristol-Myers Squibb Company, priority 2009, dated 2014)

test system: HCV 1b genotype; test: HCV replicon assay (HCV-neo replicon cells, wild-type); format: cell-based, Hepatitis C virus; details: Hepatitis C virus, HCV 1b genotype replicon; class symbol; read-out: EC50 Range against HCV 1b
Procedure, shortened: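 HCV-neo replicon cells (wild-type) and replicon cells carrying NS5A resistance substitutions were treated with compounds; assay per O'Boyle et al. 2005, with luciferase-reporter read-out variants also used.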

Structure (SMILES)	EC50
CC(=O)N1CCC[C@H]1C(=O)Nc1ccc(-c2cnc(-c3ccc(NC(=O)[C@@H]4C=CCN4C(=O)c4cccs4)cc3)o2)cc1 [MS-7, (2S)-N-[4-[5-[4-[[[(2S)-1-acetyl-2-pyrrolidinyl]carbonyl]amino]phenyl]-2-oxazolyl]phenyl]-2,5-dihydro-1-(2-thienylcarbonyl)-1H-pyrrole-2-carboxamide]	1000 to 10000 nM
O=C(Nc1ccc(-c2nnc(-c3ccc(NC(=O)[C@@H]4CCCN4C(=O)OCc4ccccc4)cc3)o2)cc1)[C@@H]1CCCN1C(=O)OCc1ccccc1 [MS-8, (2S,2′S)-2,2′-[1,3,4-oxadiazole-2,5-diylbis(4,1-phenyleneiminocarbonyl)]bis-1-pyrrolidinecarboxylic acid, bis(phenylmethyl) ester]	4.57 to 99 nM
O=C(Nc1ccc(-c2nnc(-c3ccc(NC(=O)[C@@H]4CCCN4C(=O)Cc4ccccc4)cc3)o2)cc1)[C@@H]1CCCN1C(=O)Cc1ccccc1 [MS-9, (2S,2′S)-N,N′-(4,4′-(1,3,4-oxadiazole-2,5-diyl)bis(4,1-phenylene))bis(1-(2-phenylacetyl)pyrrolidine-2-carboxamide)]	100 to 999 nM
C[C@H](NC(=O)OCc1ccccc1)C(=O)Nc1ccc(-c2nc(CC(=O)O)oc2-c2ccc(NC(=O)[C@H](C)NC(=O)OCc3ccccc3)cc2)cc1 [OL-1, 4,5-bis[4-[[(2S)-1-oxo-2-[[(phenylmethoxy)carbonyl]amino]propyl]amino]phenyl]-2-oxazoleacetic acid]	1000 to 10000 nM
CCOC(=O)Cc1nc(-c2ccc(NC(=O)[C@H](C)NC(=O)OCc3ccccc3)cc2)c(-c2ccc(NC(=O)[C@H](C)NC(=O)OCc3ccccc3)cc2)o1 [OL-1d, 4,5-bis[4-[[(2S)-1-oxo-2-[[(phenylmethoxy)carbonyl]amino]propyl]amino]phenyl]-2-oxazoleacetic acid, ethyl ester]	1000 to 10000 nM
CCOC(=O)Cc1nc(-c2ccc(NC(=O)[C@@H]3CCCN3C(=O)OCc3ccccc3)cc2)c(-c2ccc(NC(=O)[C@@H]3CCCN3C(=O)OCc3ccccc3)cc2)o1 [OL-2, 4,5-bis[4-[[[(2S)-1-[(phenylmethoxy)carbonyl]-2-pyrrolidinyl]carbonyl]amino]phenyl]-2-oxazoleacetic acid, ethyl ester]	1000 to 10000 nM
O=C(O)Cc1nc(-c2ccc(NC(=O)[C@@H]3CCCN3C(=O)OCc3ccccc3)cc2)c(-c2ccc(NC(=O)[C@@H]3CCCN3C(=O)OCc3ccccc3)cc2)o1 [OL-3, 4,5-bis[4-[[[(2S)-1-[(phenylmethoxy)carbonyl]-2-pyrrolidinyl]carbonyl]amino]phenyl]-2-oxazoleacetic acid]	1000 to 10000 nM
Cc1nc(-c2ccc(NC(=O)[C@H](C)NC(=O)OCc3ccccc3)cc2)c(-c2ccc(NC(=O)[C@H](C)NC(=O)OCc3ccccc3)cc2)o1 [OL-4, [(2-methyl-4,5-oxazolediyl)bis[4,1-phenyleneimino[(1S)-1-methyl-2-oxo-2,1-ethanediyl]]]bis-carbamic acid, bis(phenylmethyl) ester]	100 to 999 nM
Cc1nc(-c2ccc(NC(=O)[C@@H]3CCCN3C(=O)OCc3ccccc3)cc2)c(-c2ccc(NC(=O)[C@@H]3CCCN3C(=O)OCc3ccccc3)cc2)o1 [OL-5, (2S,2′S)-2,2′-[(2-methyl-4,5-oxazolediyl)bis(4,1-phenyleneiminocarbonyl)]bis-1-pyrrolidinecarboxylic acid, bis(phenylmethyl) ester]	100 to 999 nM
CN(C)Cc1nc(-c2ccc(NC(=O)[C@@H]3CCCN3C(=O)Cc3ccccc3)cc2)c(-c2ccc(NC(=O)[C@@H]3CCCN3C(=O)Cc3ccccc3)cc2)o1 [OL-6]	1000 to 10000 nM
O=C(Nc1ccc(-c2nc[nH]c2-c2ccc(NC(=O)[C@@H]3CCCN3C(=O)OCc3ccccc3)cc2)cc1)[C@@H]1CCCN1C(=O)OCc1ccccc1 [OL-7, (2S,2′S)-2,2′-[1H-imidazole-4,5-diylbis(4,1-phenyleneiminocarbonyl)]bis-1-pyrrolidinecarboxylic acid, bis(phenylmethyl) ester]	4.57 to 99 nM
C[C@H](NC(=O)OCc1ccccc1)C(=O)Nc1ccc(-c2nc[nH]c2-c2ccc(NC(=O)[C@H](C)NC(=O)OCc3ccccc3)cc2)cc1 [OL-8, [1H-imidazole-4,5-diylbis[4,1-phenyleneimino[(1S)-1-methyl-2-oxo-2,1-ethanediyl]]]bis-carbamic acid, bis(phenylmethyl) ester]	4.57 to 99 nM
C[C@H](NC(=O)Cc1ccccc1)C(=O)Nc1ccc(-c2nc[nH]c2-c2ccc(NC(=O)[C@H](C)NC(=O)Cc3ccccc3)cc2)cc1 [OL-9, (2S,2′S)-N,N′-(1H-imidazole-4,5-diyldi-4,1-phenylene)bis(2-((phenylacetyl)amino)propanamide)]	1000 to 10000 nM
O=C(Nc1ccc(-c2nc[nH]c2-c2ccc(NC(=O)[C@@H]3CCCN3C(=O)Cc3ccccc3)cc2)cc1)[C@@H]1CCCN1C(=O)Cc1ccccc1 [OL-10, (2S,2′S)-N,N′-(1H-imidazole-4,5-diyldi-4,1-phenylene)bis(1-(phenylacetyl)-2-pyrrolidinecarboxamide)]	4.57 to 99 nM
O=C(Nc1ccc(-c2nc[nH]c2-c2ccc(NC(=O)[C@@H]3C[C@@H](O)CN3C(=O)Cc3ccccc3)cc2)cc1)[C@@H]1C[C@@H](O)CN1C(=O)Cc1ccccc1 [OL-11]	100 to 999 nM
C[C@H](NC(=O)OCc1ccccc1)C(=O)Nc1ccc(-c2n[nH]c(=O)n2-c2ccc(NC(=O)[C@H](C)NC(=O)OCc3ccccc3)cc2)cc1 [OL-12, [(1,5-dihydro-5-oxo-4H-1,2,4-triazole-3,4-diyl)bis[4,1-phenyleneimino[(1S)-1-methyl-2-oxo-2,1-ethanediyl]]]bis-carbamic acid, bis(phenylmethyl) ester]	1000 to 10000 nM
O=C(Nc1ccc(-c2n[nH]c(=O)n2-c2ccc(NC(=O)[C@@H]3CCCN3C(=O)OCc3ccccc3)cc2)cc1)[C@@H]1CCCN1C(=O)OCc1ccccc1 [OL-13, (2S,2′S)-2,2′-[(1,5-dihydro-5-oxo-4H-1,2,4-triazole-3,4-diyl)bis(4,1-phenyleneiminocarbonyl)]bis-1-pyrrolidinecarboxylic acid, bis(phenylmethyl) ester,]	1000 to 10000 nM
O=C(Nc1ccc(-c2nncn2-c2ccc(NC(=O)[C@@H]3CCCN3C(=O)OCc3ccccc3)cc2)cc1)[C@@H]1CCCN1C(=O)OCc1ccccc1 [OL-14, (2S,2′S)-2,2′-[4H-1,2,4-triazole-3,4-diylbis(4,1-phenyleneiminocarbonyl)]bis-1-pyrrolidinecarboxylic acid, bis(phenylmethyl) ester]	1000 to 10000 nM
O=C(Nc1ccc(-c2nncn2-c2ccc(NC(=O)[C@@H]3CCCN3C(=O)Cc3ccccc3)cc2)cc1)[C@@H]1CCCN1C(=O)Cc1ccccc1 [OL-15, (2S,2′S)-N,N′-(4H-1,2,4-triazole-3,4-diyldi-4,1-phenylene)bis[1-(phenylacetyl)-2-pyrrolidinecarboxamide]]	1000 to 10000 nM
C[C@H](NC(=O)OCc1ccccc1)C(=O)Nc1ccc(-c2nncn2-c2ccc(NC(=O)[C@H](C)NC(=O)OCc3ccccc3)cc2)cc1 [OL-16, [(1S)-1-methyl-2-oxo-2-[[4-[3-[4-[[(2S)-1-oxo-2-[[(phenylmethoxy)carbonyl]amino]propyl]amino]phenyl]-4H-1,2,4-triazol-4-yl]phenyl]amino]ethyl]-carbamic acid, phenylmethyl ester]	1000 to 10000 nM
O=C(Nc1ccc(-c2nncn2-c2ccc(NC(=O)[C@@H]3C[C@@H](O)CN3C(=O)Cc3ccccc3)cc2)cc1)[C@@H]1C[C@@H](O)CN1C(=O)Cc1ccccc1 [OL-17, (2S,4R,2′S,4′R)-N,N′-(4H-1,2,4-triazole-3,4-diyldi-4,1-phenylene)bis[4-hydroxy-1-(phenylacetyl)-2-pyrrolidinecarboxamide]]	1000 to 10000 nM
C[C@H](NC(=O)OCc1ccccc1)C(=O)Nc1ccc(-c2n[nH]nc2-c2ccc(NC(=O)[C@H](C)NC(=O)OCc3ccccc3)cc2)cc1 [OL-18, [(1S)-1-methyl-2-oxo-2-[[4-[4-[4-[[(2S)-1-oxo-2-[[(phenylmethoxy)carbonyl]amino]propyl]amino]phenyl]-1H-1,2,3-triazol-5-yl]phenyl]amino]ethyl]-carbamic acid, phenylmethyl ester]	4.57 to 99 nM
O=C(Nc1ccc(-c2n[nH]nc2-c2ccc(NC(=O)[C@@H]3CCCN3C(=O)OCc3ccccc3)cc2)cc1)[C@@H]1CCCN1C(=O)OCc1ccccc1 [OL-19, (2S,2′S)-2,2′-[1H-1,2,3-triazole-4,5-diylbis(4,1-phenyleneiminocarbonyl)]bis-1-pyrrolidinecarboxylic acid, bis(phenylmethyl) ester]	4.57 to 99 nM
O=C(Nc1ccc(-c2n[nH]nc2-c2ccc(NC(=O)[C@@H]3CCCN3C(=O)Cc3ccccc3)cc2)cc1)[C@@H]1CCCN1C(=O)Cc1ccccc1 [OL-20, (2S,2′S)-N,N′-(1H-1,2,3-triazole-4,5-diyldi-4,1-phenylene)bis[1-(phenylacetyl)-2-pyrrolidinecarboxamide]]	4.57 to 99 nM
O=C(Nc1ccc(-c2n[nH]nc2-c2ccc(NC(=O)[C@@H]3C[C@@H](O)CN3C(=O)Cc3ccccc3)cc2)cc1)[C@@H]1C[C@@H](O)CN1C(=O)Cc1ccccc1 [OL-21, (2S,4R,2′S,4′R)-N,N′-(1H-1,2,3-triazole-4,5-diyldi-4,1-phenylene)bis(4-hydroxy-1-(phenylacetyl)-2-pyrrolidinecarboxamide)]	100 to 999 nM
O=C(Nc1ccc(-c2ccc(-c3ccc(NC(=O)[C@@H]4CCCN4C(=O)Cc4ccccc4)cc3)s2)cc1)[C@@H]1CCCN1C(=O)Cc1ccccc1 [OL-22, (2S,2′S)-N,N′-(2,5-thienediyldi-4,1-phenylene)bis(1-(phenylacetyl)-2-pyrrolidinecarboxamide)]	4.57 to 99 nM
O=C(Nc1ccc(-c2ccc(-c3ccc(NC(=O)[C@@H]4CCCN4C(=O)OCc4ccccc4)cc3)s2)cc1)[C@@H]1CCCN1C(=O)OCc1ccccc1 [OL-23, (2S,2′S)-2,2′-[2,5-thienediylbis(4,1-phenyleneiminocarbonyl)]bis-1-pyrrolidinecarboxylic acid, bis(phenylmethyl) ester]	4.57 to 99 nM
CC(=O)N1CCC[C@H]1C(=O)Nc1ccc(-c2ccc(-c3ccc(NC(=O)[C@@H]4CCCN4C(C)=O)cc3)s2)cc1 [OL-24, (2S,2′S)-N,N′-(2,5-thienediyldi-4,1-phenylene)bis[1-acetyl-2-pyrrolidinecarboxamide]]	100 to 999 nM

same assay, conditions: Hepatitis C virus, HCV 1b genotype replicon; read-out: EC50 1b

Structure (SMILES)	EC50
O=C(Nc1ccc(-c2nnc(-c3ccc(NC(=O)[C@@H]4CCCN4C(=O)OCc4ccccc4)cc3)o2)cc1)[C@@H]1CCCN1C(=O)OCc1ccccc1 [MS-8, (2S,2′S)-2,2′-[1,3,4-oxadiazole-2,5-diylbis(4,1-phenyleneiminocarbonyl)]bis-1-pyrrolidinecarboxylic acid, bis(phenylmethyl) ester]	90 nM
O=C(Nc1ccc(-c2nnc(-c3ccc(NC(=O)[C@@H]4CCCN4C(=O)Cc4ccccc4)cc3)o2)cc1)[C@@H]1CCCN1C(=O)Cc1ccccc1 [MS-9, (2S,2′S)-N,N′-(4,4′-(1,3,4-oxadiazole-2,5-diyl)bis(4,1-phenylene))bis(1-(2-phenylacetyl)pyrrolidine-2-carboxamide)]	150 nM
Cc1nc(-c2ccc(NC(=O)[C@H](C)NC(=O)OCc3ccccc3)cc2)c(-c2ccc(NC(=O)[C@H](C)NC(=O)OCc3ccccc3)cc2)o1 [OL-4, [(2-methyl-4,5-oxazolediyl)bis[4,1-phenyleneimino[(1S)-1-methyl-2-oxo-2,1-ethanediyl]]]bis-carbamic acid, bis(phenylmethyl) ester]	220 nM
C[C@H](NC(=O)OCc1ccccc1)C(=O)Nc1ccc(-c2n[nH]nc2-c2ccc(NC(=O)[C@H](C)NC(=O)OCc3ccccc3)cc2)cc1 [OL-18, [(1S)-1-methyl-2-oxo-2-[[4-[4-[4-[[(2S)-1-oxo-2-[[(phenylmethoxy)carbonyl]amino]propyl]amino]phenyl]-1H-1,2,3-triazol-5-yl]phenyl]amino]ethyl]-carbamic acid, phenylmethyl ester]	92 nM
CC(=O)N1CCC[C@H]1C(=O)Nc1ccc(-c2ccc(-c3ccc(NC(=O)[C@@H]4CCCN4C(C)=O)cc3)s2)cc1 [OL-24, (2S,2′S)-N,N′-(2,5-thienediyldi-4,1-phenylene)bis[1-acetyl-2-pyrrolidinecarboxamide]]	620 nM
